“And” between values parts separate entries of the source, which are not always exact repeats. Identical values can stand only once.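 Where inhibition never reached the appropriate level, the endpoint shown equals the highest concentration tested. Otherwise, values were interpolated linearly from a five-concentration, 48-hour dose response in 96-well plates. At the GI50, growth is halved. TGI marks complete inhibition of growth.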
How the values were obtained:
Experiment in all cases: NCI tumour cell line growth inhibition, 48 h
DMS 273 small cell lung = tested on: DMS 273 small cell lung
KM20L2 colon = tested on: KM20L2 colon
SNB-78 CNS = tested on: SNB-78 CNS
LXFL 529 NSCLC = tested on: LXFL 529 NSCLC
DLD-1 colon = tested on: DLD-1 colon
HOP-18 NSCLC = tested on: HOP-18 NSCLC
RXF-631 renal = tested on: RXF-631 renal
XF 498 CNS = tested on: XF 498 CNS
MDA-N = tested on: MDA-N
SN12K1 renal = tested on: SN12K1 renal
P388 leukemia = tested on: P388 leukemia
P388/ADR leukemia = tested on: P388/ADR leukemia

SMILES | TGI (DMS 273 small cell lung) | TGI (KM20L2 colon) | TGI (SNB-78 CNS) | TGI (LXFL 529 NSCLC) | TGI (DLD-1 colon) | TGI (HOP-18 NSCLC) | TGI (RXF-631 renal) | TGI (XF 498 CNS) | also measured
Cc1coc2c1C(=O)C(=O)c1ccccc1-2 | 3.33 µM | 11.2 µM | 3.13 µM | 1.41 µM | 4.26 µM | – | – | – | –
Cn1c(=O)nc2n(-c3ccc(Cl)cc3)c(-c3ccccc3)c(-c3ccccc3)nc-2c1=O | 59.3 µM | > 100 µM | > 100 µM | > 100 µM | > 100 µM | > 100 µM | > 100 µM | 42.2 µM | –
COC(=O)c1cccc2c3ccccc3c3ccccc3c12 | > 100 µM | > 100 µM | – | 85.2 µM | > 100 µM | > 100 µM | – | – | –
C/C(=N\NC(N)=S)c1ccc(C)c(C)c1 | > 100 µM | > 100 µM | > 100 µM | > 100 µM | > 100 µM | > 100 µM | > 100 µM | 48.1 µM | –
CCCCCCCCOCC(O)CO (centres undefined) | > 100 µM | > 100 µM | > 100 µM | > 100 µM | > 100 µM | > 100 µM | > 100 µM | > 100 µM | –
O=C1C(=C2CCCC2)CCC1CN1CCCCC1 (centres undefined) | – | 32.9 µM | 41.4 µM | 26.2 µM | – | 28.7 µM | – | – | –
N#Cc1c(-c2ccccc2)cc(-c2ccc(N)cc2)[nH]c1=O | > 100 µM | > 100 µM | > 100 µM | > 100 µM | > 100 µM | > 100 µM | > 100 µM | – | –
CC(C)(C)OP(=O)(OC(C)(C)C)C(O)c1ccc(/C=C(\C#N)C(N)=O)cc1 (centres undefined) | > 100 µM | > 100 µM | > 100 µM | > 100 µM | > 100 µM | – | – | > 100 µM | –
C=C1C(=O)OC2C1C(OC(=O)/C(C)=C/C)CC(O)(CCl)C1C(O)C=C(C)C21O (centres undefined) | – | – | – | – | – | – | – | – | TGI (MDA-N): 37.3 µM
COC(=O)CCC(=O)N1C/C(=C\c2ccccc2)C(=O)/C(=C/c2ccccc2)C1 | 2.73 µM | 3.82 µM | 7.83 µM | 4.13 µM | 10.9 µM | 6.85 µM | – | 19.2 µM | –
C[N+](C)(C)CC1CCC(C[N+](C)(C)C)C1=O (centres undefined) | 6.37 µM | 9.78 µM | 5.26 µM | 1.57 µM | > 100 µM | 1.85 µM | 36.4 µM | 3.74 µM | TGI (MDA-N): 19.3 µM
CC[C@@]1(OC(=O)C(N)CCCCN)C(=O)OCc2c1cc1n(c2=O)Cc2cc3ccccc3nc2-1 (some centres undefined) | 0.366 µM | 12.5 µM | > 100 µM | 4.34 µM | > 27.1 µM | > 23 µM | – | 1.78 µM | TGI (MDA-N): 4.44 µM
CCC/C=C\C=C\C1(NS(=O)(=O)c2ccc(C)cc2)CCC(C(C)(C)C)CC1 (centres undefined) | 27.9 µM | 35.6 µM | 72.3 µM | > 100 µM | 45.3 µM | > 100 µM | – | 35.7 µM | –
CCCCCCCCCC[C@@H](O)[C@@H]1CC[C@@H]([C@@H]2CC[C@@H]([C@@H](O)CCCCCCCCCC[C@H](O)CC3=CC(C)OC3=O)O2)O1 (some centres undefined) | 13.5 µM | > 100 µM | 56.2 µM | 25.6 µM | > 100 µM | – | 19.4 µM | – | –
CC1=CC(C)(c2c[nH]c3ccccc23)CC(C)(C)c2c1[nH]c1ccccc21 (centres undefined) | – | 31.4 µM | > 100 µM | > 100 µM | 27.2 µM | > 100 µM | 31.8 µM | 72.1 µM | –
c1ccc(CN2CCc3[nH]c4ccccc4c3C2)cc1 | > 100 µM | 26.3 µM | > 100 µM | 48.6 µM | > 100 µM | > 100 µM | 38.5 µM | 68.6 µM | TGI (SN12K1 renal): 29.1 µM; TGI (MDA-N): 44 µM
O=C(O)C1CC=CCC1C(=O)Nc1cccc(O)c1 (centres undefined) | – | – | – | – | – | – | – | – | TGI (MDA-N): > 100 µM
CN(C)CCC(/C=C/c1ccccc1)=N\Nc1ccc(Cl)c(Cl)c1 | 6.42 µM | 4.54 µM | 15.4 µM | 4.13 µM | 11 µM | 8.28 µM | 6.73 µM | 7.23 µM | –

SMILES | TGI (DMS 273 small cell lung) | TGI (KM20L2 colon) | TGI (SNB-78 CNS) | TGI (LXFL 529 NSCLC) | TGI (DLD-1 colon) | TGI (HOP-18 NSCLC) | TGI (RXF-631 renal) | TGI (XF 498 CNS) | also measured
O=[P+](O)c1ccccn1 | > 100 µM | > 100 µM | > 100 µM | > 100 µM | > 100 µM | – | – | > 100 µM | –
C[C@H]1C/C=C/[C@H]2[C@@H]3O[C@]3(C)[C@@H](C)[C@H]3[C@H](Cc4ccccc4)NC(=O)[C@]32OC(=O)O/C=C/[C@@](C)(O)C1=O | > 96.8 µM and 64.2 µM | > 92.3 µM and 125 µM and > 250 µM | – | – | – | 0.162 µM | – | – | GI50 (SN12K1 renal): 0.0125 µM; GI50 (DMS 273 small cell lung): 0.0125 µM; GI50 (KM20L2 colon): 0.0125 µM; GI50 (HOP-18 NSCLC): < 0.0116 µM; GI50 (SNB-78 CNS): 0.024 µM and 0.025 µM; TGI (MDA-N): 54 µM; GI50 (XF 498 CNS): < 0.025 µM; TGI (P388 leukemia): 15.3 µM and 125 µM and 45.6 µM; GI50 (P388/ADR leukemia): 0.434 µM and 0.194 µM and 0.69 µM; TGI (P388/ADR leukemia): 10.5 µM and 14 µM and 40.9 µM
C1OC1CN1CCN(CC2CO2)CC1 (centres undefined) | > 100 µM | > 100 µM | > 100 µM | > 100 µM | > 100 µM | > 100 µM | – | > 100 µM | –
CCOC(=O)C(=O)Nc1cc(Cl)c(Cl)cc1Cl | > 100 µM | > 100 µM | > 100 µM | > 100 µM | – | – | > 100 µM | – | –
CCOC(=O)C1C=C2O[C@@H]3OC4(CCCCC4)O[C@@H]3C2C2C(=O)CCC(=O)[C@@]12C(=O)OC (some centres undefined) | > 100 µM | > 100 µM | > 100 µM | > 100 µM | > 100 µM | > 100 µM | > 100 µM | > 100 µM | –
O=c1c2cc(Br)cc(Br)c2nc(CCCl)n1-c1ccc(O)c([N+](=O)[O-])c1 | 36.9 µM | – | 62.3 µM | 30.3 µM | 36.6 µM | 30.4 µM | – | – | –
Cc1cccc(C)c1NC(=O)CCc1nnc2s/c(=C\c3ccc(N(C)C)cc3)c(=O)n12 | > 100 µM | > 100 µM | > 100 µM | > 100 µM | > 100 µM | – | > 100 µM | > 100 µM | –
CCCCC(C)/C=C/C(=O)C1=C(O)/C(=C/C(=O)O)OC1=O (centres undefined) | > 100 µM | > 100 µM | > 100 µM | > 100 µM | – | > 100 µM | > 100 µM | > 100 µM | –
C[P+](C)(C)C | – | > 100 µM | > 100 µM | > 100 µM | > 100 µM | > 100 µM | > 100 µM | > 100 µM | –
Nc1ccc(-c2cc(C(=O)Nc3nccs3)[nH]c(=S)n2)cc1 | – | > 100 µM | > 100 µM | > 100 µM | > 100 µM | > 100 µM | – | > 100 µM | –
S=c1o[nH]c(-c2ccccc2)c1C=Nc1ccccc1 | > 100 µM | – | > 100 µM | > 100 µM | > 100 µM | – | – | > 100 µM | –
CC1(C)CCCC2(C)C3C(O)CC2(C)C(O)C31 (centres undefined) | – | > 100 µM | > 100 µM | > 100 µM | > 100 µM | > 100 µM | – | > 100 µM | –
CCc1cccc(C(C)C)c1NC(=O)CCl | > 100 µM | > 100 µM | > 100 µM | > 100 µM | > 100 µM | – | 37.4 µM | > 100 µM | –
Cc1ccccc1NC(=O)/C=N/O | > 100 µM | 32 µM | – | > 100 µM | > 100 µM | > 100 µM | – | – | –
O=C1/C(=C/c2ccc3c(c2)OCCO3)CCC/C1=C\c1ccc2c(c1)OCCO2 | 43.9 µM | 37.5 µM | > 100 µM | > 100 µM | 48.4 µM | 80.2 µM | – | – | –
OB(O)c1ccccc1C#Cc1ccccc1B(O)O | – | – | – | – | – | – | – | – | TGI (MDA-N): 58.4 µM
Cc1cccc(C)c1NC(=O)CCC/C(CC(=O)c1ccc(F)cc1)=N\NC(=O)C(=O)NN | > 100 µM | > 100 µM | > 100 µM | > 100 µM | > 100 µM | > 100 µM | > 100 µM | > 100 µM | –

From PubChem BioAssay (NCI)
